In article PMC8018184, “Evaluation of the Pharmacophoric Role of the O–O Bond in Synthetic Antileishmanial Compounds: Comparison between 1,2-Dioxanes and Tetrahydropyrans” (Journal of Medicinal Chemistry, 2020):

What was measured:
[1] = test system: L. donovani promastigotes (MHOM/NP/02/BPK282/0cl4); assay: Promastigote growth inhibition assay (alamarBlue); assay type: cell-based, Leishmania donovani; settings: for IC50: Leishmania donovani, 72 h, alamarBlue, HOMEM 20% FBS, compounds as racemates, read-out: IC50 (concentration causing 50% growth inhibition) against promastigotes of L. donovani; for Selectivity index (SI) = CC50/IC50: Vero CC50 / IC50 on promastigotes
Procedure: The bioactivity of the new tetrahydropyrans 3 was initially evaluated against the extracellular promastigote forms of L. donovani (MHOM/NP/02/BPK282/0cl4) as the reference strain, indicative of the leishmaniasis in the Old World. The results were expressed as IC50, i.e., the concentration of the product required to inhibit the parasite growth by 50%. When a compound could inhibit the promastigote growth, its cytotoxicity was also evaluated on Vero cells (Table 1) and on THP-1 cells (see the Supporting Information, Table S3) and the corresponding selectivity indexes (SIs) were calculated. The performance of each tetrahydropyran 3 was compared with that of the corresponding endoperoxide 2 (Table 1).
Promastigotes of a L. donovani reference strain (MHOM/NP/02/BPK282/0cl4) were maintained at 26 °C in a liquid custom-made medium, HOMEM Cat. no: 1140-082 (Gibco Thermo Fisher Scientific Inc., Waltham, USA), complete composition: S-MEM (Eagle) 1 × 1 liter pack, glucose (1–2 g), sodium bicarbonate (0.3 g), sodium pyruvate (0.11 g), p-aminobenzoic acid (1 mg), biotin (0.1 mg), HEPES (4.77–5.96 g), MEM amino acids (10 mL), MEM nonessential amino acids (10 mL), pH 7.5–7.6, supplemented with 20% fetal bovine serum (FBS, EuroClone SpA, Milan, Italy)[123] and 1% penicillin–streptomycin (EuroClone SpA).
To evaluate the efficacy of the compounds on the extracellular forms of L. donovani, promastigotes in their late log/stationary phase were seeded with the complete HOMEM medium at 10^6 cells mL^–1 in 96-well plates and incubated with tested compounds at a range concentration of 600–1.6 μM in a 26 °C incubator for 72 h. The antileishmanial drug amphotericin B was used as the positive control, and untreated promastigotes were the negative control. Each experiment was performed in duplicate. Stock solution of the compounds was 8 mM in DMSO. […] The alamarBlue assay includes a colorimetric growth indicator based on detection of metabolic activity. Specifically, the system incorporates an oxidation–reduction (REDOX) indicator that changes color in response to chemical reduction of the growth medium resulting from cell growth. The method monitors the reducing environment of proliferating cells; the cell-permeable resazurin is added (nonfluorescent form, blue color) and, upon entering cells, is reduced to resorufin (fluorescent form, red color) as a result of cellular metabolic activity. Evaluation was performed by adding 20 μL of alamarBlue and incubating at 26 °C for 24 h. The reducing environment was evaluated after 24 h by absorbance measurement at the Multiskan ascent plate reader (Thermo Fisher Scientific Inc.) at 550 and 630 nm.

[2] = Cytotoxicity test on Vero cells (alamarBlue); assay type: cell-based, African green monkey; settings: chlorocebus sabaeus, Vero cells (kidney epithelial cell line); 72 h, alamarBlue; read-out: CC50 (50% cytotoxic concentration) on Vero cells
Procedure: Vero cells (kidney of African green monkey epithelial cell line) were cultured at 37 °C in the MEM liquid medium supplemented with 10% FBS (EuroClone SpA), 1% levoglutamine (EuroClone SpA), and 1% penicillin–streptomycin (EuroClone SpA). THP-1 cells (human leukemia monocytic cell line) were cultured at 37 °C in the RPMI 1640 (EuroClone SpA) liquid medium supplemented with 10% FBS (EuroClone SpA), 1% levoglutamine (EuroClone SpA), 1% penicillin–streptomycin, and mercaptoethanol (Gibco) 50 μM.
The cytotoxicity of the compounds was determined using mammalian kidney epithelial cells (Vero cell line) and human acute monocytic leukemia cell line (THP-1). Cells were seeded (10^5 cells mL^–1) on 96-well plates with the complete MEM medium and incubated with test compounds at 37 °C in a 5% CO2 incubator. After 72 h of incubation, 20 μL of the alamarBlue reagent was added to each well and incubated at 37 °C for 24 h. Reduction of resazurin to resorufin was evaluated after 24 h by absorbance measurement at the Multiskan ascent plate reader (Thermo Fisher Scientific Inc.,) at 550 and 630 nm. […] Each experiment was performed in duplicate.

| SMILES | IC50 [1] [µM] | Selectivity index (SI) = CC50/IC50 [1] | CC50 at 72 h [2] [µM] |
| --- | --- | --- | --- |
| CCCCC1(CCCC)CO[C@@](C)(OC)[C@@H](CNCCCn2ccnc2)C1 (racemic) [3a, N-((5,5-Dibutyl-2-methoxy-2-methyltetrahydro-2H-pyran-3-yl)methyl)-3-(1H-imidazol-1-yl)propan-1-amine] | 3.4 ± 0.4 | 10.4 | 35.2 ± 4.7 |
| CCCCC1(CCCC)C[C@H](CNCCCn2ccnc2)[C@](C)(OC)OO1 [2a] | 7.5 ± 1.7 | 9.6 | 72 ± 6.6 |
